The record followed here is patent US9133158B2, “Bicyclic dihydroisoquinoline-1-one derivatives” (Hoffmann-La Roche Inc., priority 2011, dated 2015).

Experiment [1] has as its target T1, human CYP11B1 (Homo sapiens, UniProt P15538).
T1 construct: expressed in transfected cells
T1 sequence (P15538 25-503): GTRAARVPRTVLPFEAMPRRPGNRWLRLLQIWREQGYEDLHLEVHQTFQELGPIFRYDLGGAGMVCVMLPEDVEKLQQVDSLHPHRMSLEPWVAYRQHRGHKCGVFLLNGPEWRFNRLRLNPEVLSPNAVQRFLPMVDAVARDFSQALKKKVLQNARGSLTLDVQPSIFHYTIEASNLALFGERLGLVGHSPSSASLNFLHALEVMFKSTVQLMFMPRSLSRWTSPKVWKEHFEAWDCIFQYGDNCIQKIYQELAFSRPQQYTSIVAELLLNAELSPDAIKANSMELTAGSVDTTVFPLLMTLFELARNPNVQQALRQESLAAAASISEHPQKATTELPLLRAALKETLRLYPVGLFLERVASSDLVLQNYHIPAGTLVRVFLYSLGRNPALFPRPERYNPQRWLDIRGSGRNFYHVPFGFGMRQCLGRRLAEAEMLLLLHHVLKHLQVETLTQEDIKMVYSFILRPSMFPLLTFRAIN
The experiment is described as follows: G-402 cellular enzyme assay, human CYP11B1 (cortisol release, HTRF). Type of experiment: cell-based. The note with it: G-402 cells, 1 μM Deoxycortisol. A digest of the protocol: (§1)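 Inhibition of steroid release was taken as enzyme inhibition. CYP11B1 assays used 1 μM deoxycortisol with cortisol detection, CYP11B2 assays 1 μM deoxycorticosterone with aldosterone detection, both by HTRF after 16 h in stable G-402 cells; EC50 from least-squares MMF fit.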

The target of experiment [2] is T2, human CYP11B2 (Homo sapiens, UniProt P19099).
T2 construct: expressed in transfected cells
T2 sequence (P19099 25-503): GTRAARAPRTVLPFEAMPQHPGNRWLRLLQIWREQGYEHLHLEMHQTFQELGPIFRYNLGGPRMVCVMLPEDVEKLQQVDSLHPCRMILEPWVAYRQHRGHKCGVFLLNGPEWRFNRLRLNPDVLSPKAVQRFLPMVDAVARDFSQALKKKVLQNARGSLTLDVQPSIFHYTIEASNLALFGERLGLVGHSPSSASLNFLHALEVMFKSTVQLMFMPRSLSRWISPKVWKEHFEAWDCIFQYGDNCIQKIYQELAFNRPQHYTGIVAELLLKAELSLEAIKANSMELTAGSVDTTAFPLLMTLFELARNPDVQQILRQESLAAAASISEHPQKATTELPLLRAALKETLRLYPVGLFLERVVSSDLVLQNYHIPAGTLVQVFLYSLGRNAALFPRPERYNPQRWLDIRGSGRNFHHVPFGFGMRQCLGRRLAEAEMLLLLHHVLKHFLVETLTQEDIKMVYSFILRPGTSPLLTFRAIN
The experiment in a line: G-402 cellular enzyme assay, human CYP11B2 (aldosterone release, HTRF). As to conditions: G-402 cells, 1 μM Deoxycorticosterone. Type of experiment: cell-based. A digest of the protocol: as §1

As to `CC[C@@H]1c2cc(Cl)ccc2C(=O)N1c1cncc2c1CC[C@H]2NS(C)(=O)=O` (single isomer, unassigned) [Example 369, N-[(R or S)-4-((R or S)-5-Chloro-3-ethyl-1-oxo-1,3-dihydro-isoindol-2-yl)-6,7-dihydro-5H-[2]pyrindin-7-yl]-methanesulfonamide], the concentration for a half-maximal effect (EC50) in experiment [1] came out at 12.4 µM; in experiment [2], 0.0403 µM.
The corresponding values for `O=C1c2ccc(Cl)cc2CCN1c1cncc(C2CC2)c1` [Example 66, 6-Chloro-2-(5-cyclopropyl-pyridin-3-yl)-3,4-dihydro-2H-isoquinolin-1-one] are 0.0697 µM and 0.0069 µM.
Regarding `CC(=O)N1CC[C@@H](Oc2cncc(N3C(=O)c4ccc(Cl)cc4C3(C)C)c2)C1` [Example 442, 2-[5-((R)-1-Acetyl-pyrrolidin-3-yloxy)-pyridin-3-yl]-5-chloro-3,3-dimethyl-2,3-dihydro-isoindol-1-one], the values for the EC50 in experiment [1] and in experiment [2] were 0.427 µM and 0.0056 µM, respectively.
The corresponding values for `CC(=O)NC1CCCc2c1cncc2N1Cc2cc(Cl)ccc2C1=O` (single isomer, unassigned) [Example 322, N-[(S or R)-4-(5-Chloro-1-oxo-1,3-dihydro-isoindol-2-yl)-5,6,7,8-tetrahydro-isoquinolin-8-yl]-acetamide] are 39.6 µM and 5.14 µM.
Consider `O=C(Nc1cncc(N2CCc3cc(Cl)ccc3C2=O)c1)NC1CCCCC1` [Example 250, 1-[5-(6-Chloro-1-oxo-3,4-dihydro-1H-isoquinolin-2-yl)-pyridin-3-yl]-3-cyclohexyl-urea], for which the values for the EC50 in experiment [1] and in experiment [2] were 12.3 µM and 4.44 µM, respectively.
The corresponding values for `Cn1cnnc1Cc1cncc(N2CCc3cc(Cl)ccc3C2=O)c1` [Example 268, 6-Chloro-2-[5-(4-methyl-4H-[1,2,4]-triazol-3-ylmethyl)-pyridin-3-yl]-3,4-dihydro-2H-isoquinolin-1-one] are 14.2 µM and 1.65 µM.
Consider `CS(=O)(=O)NCc1cncc(N2CCc3cc(Cl)ccc3C2=O)c1` [Example 152, N-[5-(6-Chloro-1-oxo-3,4-dihydro-1H-isoquinolin-2-yl)-pyridin-3-ylmethyl]-methanesulfonamide], for which the concentration giving a half-maximal response (EC50) in experiment [1] was 11.6 µM; in experiment [2] it was 0.295 µM.
Taken in the same sequence, the figures for `O=C1c2ccc(Cl)cc2CN1c1cncc(Cn2cncn2)c1` [Example 110, 5-Chloro-2-(5-[1,2,4]triazol-1-ylmethyl-pyridin-3-yl)-2,3-dihydro-isoindol-1-one] were 1.28 µM and 0.184 µM.
Taken in the same sequence, the figures for `Cc1c(-c2cncc(N3CCc4cc(Cl)ccc4C3=O)c2)cnn1C` [Example 423, 6-Chloro-2-[5-(1,5-dimethyl-1H-pyrazol-4-yl)-pyridin-3-yl]-3,4-dihydro-2H-isoquinolin-1-one] were 1.02 µM and 0.0637 µM.
Consider `O=C1c2ccc(Cl)cc2CCN1c1cncc(Cn2ccnc2)c1` [Example 140, 6-Chloro-2-(5-imidazol-1-ylmethyl-pyridin-3-yl)-3,4-dihydro-2H-isoquinolin-1-one], for which the figures for the concentration for a half-maximal effect (EC50) in experiment [1] and in experiment [2] were 0.0704 µM and 0.0118 µM, respectively.
The corresponding values for `Cn1ncc2c(N3CCc4cc(Cl)ccc4C3=O)cncc21` [Example 27, 6-Chloro-2-(1-methyl-1H-pyrazolo[3,4-c]pyridin-4-yl)-3,4-dihydro-2H-isoquinolin-1-one] are 0.731 µM and 0.0753 µM.
The corresponding values for `O=C1c2ccc(Cl)cc2C(Cc2ccccc2)N1c1cccnc1` (stereo not shown) [Example 124, 3-Benzyl-5-chloro-2-pyridin-3-yl-2,3-dihydro-isoindol-1-one] are 0.225 µM and 1.07 µM.
Taken in the same sequence, the figures for `Cc1n[nH]c(C)c1-c1cncc(N2CCc3cc(Cl)ccc3C2=O)c1` [Example 79, 6-Chloro-2-[5-(3,5-dimethyl-1H-pyrazol-4-yl)-pyridin-3-yl]-3,4-dihydro-2H-isoquinolin-1-one] were 0.034 µM and 0.0051 µM.
In the case of `CCS(=O)(=O)NC1CCCc2c1cncc2N1Cc2cc(Cl)ccc2C1=O` (single isomer, unassigned; (-)) [Example 317, (−)-Ethanesulfonic acid [(S or R)-4-(5-chloro-1-oxo-1,3-dihydro-isoindol-2-yl)-5,6,7,8-tetrahydro-isoquinolin-8-yl]-amide], the EC50 in experiment [1] is 2.64 µM; in experiment [2], 0.109 µM.
The corresponding values for `O=C1NCCN1Cc1cncc(N2CCc3cc(Cl)ccc3C2=O)c1` [Example 158, 6-Chloro-2-[5-(2-oxo-imidazolidin-1-ylmethyl)-pyridin-3-yl]-3,4-dihydro-2H-isoquinolin-1-one] are 6.03 µM and 0.182 µM.
In the case of `CC1(C)c2nc(Cl)ccc2C(=O)N1c1cccnc1` [Example 298, 2-Chloro-7,7-dimethyl-6-pyridin-3-yl-6,7-dihydro-pyrrolo[3,4-b]pyridin-5-one], the results for the half-maximal effective concentration (EC50) in experiment [1] and in experiment [2] were 13.7 µM and 0.175 µM, respectively.
With `CC1(C)c2cc(Cl)ccc2C(=O)N1c1cncc(CNc2cc[nH]n2)c1` [Example 381, 5-Chloro-3,3-dimethyl-2-{5-[(1H-pyrazol-3-ylamino)-methyl]-pyridin-3-yl}-2,3-dihydro-isoindol-1-one], the 50% effective concentration (EC50) is 0.138 µM in experiment [1] and 0.0034 µM in experiment [2].
Taken in the same sequence, the figures for `O=C1c2ccc(Cl)cc2CCN1c1cnccc1Cl` [Example 6, 6-Chloro-2-(4-chloro-pyridin-3-yl)-3,4-dihydro-2H-isoquinolin-1-one] were 1.21 µM and 0.03 µM.
Taken in the same sequence, the figures for `CC(=O)N[C@@H]1CCCc2c1cncc2N1C(=O)c2ccc(Cl)cc2[C@@H]1C` (single isomer, unassigned) [Example 366, N-[(R or S)-4-((S or R)-5-Chloro-3-methyl-1-oxo-1,3-dihydro-isoindol-2-yl)-5,6,7,8-tetrahydro-isoquinolin-8-yl]-acetamide] were 0.082 µM and 0.0044 µM.
Taken in the same sequence, the figures for `CCC(=O)N[C@@H]1CCCc2c1cncc2N1C(=O)c2cc(Cl)ccc2[C@@H]1CC` (single isomer, unassigned) [Example 313, N-[(R or S)-4-((S or R)-5-Chloro-1-ethyl-3-oxo-1,3-dihydro-isoindol-2-yl)-5,6,7,8-tetrahydro-isoquinolin-8-yl]-propionamide] were 3.54 µM and 0.118 µM.
On to `O=C(c1cncc(N2CCc3cc(Cl)ccc3C2=O)c1)N1CCC(O)C1` (stereo not shown) [Example 40, 6-Chloro-2-[5-(3-hydroxy-pyrrolidine-1-carbonyl)-pyridin-3-yl]-3,4-dihydro-2H-isoquinolin-1-one], for which the values for the EC50 in experiment [1] and in experiment [2] were 10.5 µM and 1.68 µM, respectively.
Consider `COc1ccc2c(n1)C(C)(C)N(c1cncc(OC(F)F)c1)C2=O` [Example 295, 6-(5-Difluoromethoxy-pyridin-3-yl)-2-methoxy-7,7-dimethyl-6,7-dihydro-pyrrolo[3,4-b] pyridin-5-one], for which the EC50 was found to be 0.849 µM in experiment [1] and 0.0488 µM in experiment [2].
Taken in the same sequence, the figures for `CCC1c2ccc(Cl)cc2C(=O)N1c1cncc(F)c1` (single isomer, unassigned) [Example 307, (S or R)-6-Chloro-3-ethyl-2-(5-fluoro-pyridin-3-yl)-2,3-dihydro-isoindol-1-one] were 15.4 µM and 0.389 µM.
Taken in the same sequence, the figures for `CC1(C)CN(c2cncc(F)c2)C(=O)c2ccc(Cl)cc21` [Example 104, 6-Chloro-2-(5-fluoro-pyridin-3-yl)-4,4-dimethyl-3,4-dihydro-2H-isoquinolin-1-one] were 59.8 µM and 2.34 µM.
Taken in the same sequence, the figures for `O=C1c2ccc(Cl)cc2CCN1c1cncc(CNc2cccc(F)c2)c1` [Example 259, 6-Chloro-2-{5-[(3-fluoro-phenylamino)-methyl]-pyridin-3-yl}-3,4-dihydro-2H-isoquinolin-1-one] were 0.0738 µM and 0.0122 µM.
Regarding `CCC(=O)N[C@H]1CCCc2c1cncc2N1C(=O)c2ccc(Cl)cc2[C@H]1CC` (single isomer, unassigned) [Example 352, N-[(S or R)-4-((R or S)-5-Chloro-3-ethyl-1-oxo-1,3-dihydro-isoindol-2-yl)-5,6,7,8-tetrahydro-isoquinolin-8-yl]-propionamide], the concentration for a half-maximal effect (EC50) is 39.4 µM in experiment [1] and 0.0965 µM in experiment [2].
